The values below come from ChEMBL document CHEMBL1132355, “Novel arylpyrazino[2,3-c][1,2,6]thiadiazine 2,2-dioxides as platelet aggregation inhibitors. 2. Optimization by quantitative structure-activity relationships” (J Med Chem, 1999).

Bounds are passed on as bounds.

The assay is described as follows: Inhibition of platelet aggregation (rabbit platelet-rich plasma),induced by arachidonic acid, (100% inhibitory response). As to conditions: Oryctolagus cuniculus.
In turn, `CCOc1nc2c(nc1-c1ccc(Cl)cc1)C(N)=NS(=O)(=O)N2CC` returned an EC100 of 10 µg/mL.

For the compound `CCN1c2nc(C)c(-c3ccccc3)nc2C(N)=NS1(=O)=O`, the EC100 is 1 µg/mL.

As for `COc1ccc(-c2nc3c(nc2-c2ccc(OC)cc2)N(C)S(=O)(=O)N=C3N)cc1`, the EC100 was 0.001 µg/mL.

As for `CN1c2ncc(-c3ccccc3)nc2C(N)=NS1(=O)=O`, the EC100 was 0.3 µg/mL.

As for `CCOC(=O)CN1c2nc(-c3ccccc3)c(-c3ccccc3)nc2C(N)=NS1(=O)=O`, the EC100 is 0.1 µg/mL.

The compound `CN1c2nc(-c3ccco3)c(-c3ccco3)nc2C(N)=NS1(=O)=O` yielded an EC100 of 1 µg/mL.

`CCN1c2nc(-c3cccs3)c(-c3cccs3)nc2C(N)=NS1(=O)=O`: the EC100 stood at 3 µg/mL.

For `CCN1c2nc(-c3ccccc3)c(Br)nc2C(N)=NS1(=O)=O`, the EC100 came to 1 µg/mL.

As for `Cc1ccc(-c2cnc3c(n2)N(C)S(=O)(=O)N=C3N)cc1`, the EC100 was > 10 µg/mL.

In turn, `CC(C)(C)OC(=O)CN1c2nc(-c3ccccc3)c(-c3ccccc3)nc2C(N)=NS1(=O)=O` showed an EC100 of 1 µg/mL.

For `CCN1c2ncc(-c3ccccc3)nc2C(N)=NS1(=O)=O`, the EC100 is 1 µg/mL.

For the compound `CCN1c2nc(-c3ccc(Cl)cc3)c(-c3ccc(Cl)cc3)nc2C(N)=NS1(=O)=O`, the EC100 came to 3 µg/mL.

The compound `CCOC(=O)CN1c2nc(-c3ccccc3)c(Br)nc2C(N)=NS1(=O)=O` gave an EC100 of 10 µg/mL.

For `COc1cccc(-c2nc3c(nc2-c2cccc(OC)c2)N(C)S(=O)(=O)N=C3N)c1`, the EC100 is > 10 µg/mL.

For the compound `CCOC(=O)CN1c2nc(-c3ccccc3)cnc2C(N)=NS1(=O)=O`, the EC100 was > 10 µg/mL.

With `CN1c2ncc(-c3ccccc3F)nc2C(N)=NS1(=O)=O`, the EC100 worked out at 0.03 µg/mL.

The compound `COc1nc2c(nc1-c1ccccc1)C(N)=NS(=O)(=O)N2C` registered an EC100 of 0.1 µg/mL.

Compound `CCN1c2nc(-c3ccccc3)c(C)nc2C(N)=NS1(=O)=O` gave an EC100 of 1 µg/mL.

The compound `CCOc1nc2c(nc1-c1ccccc1)C(N)=NS(=O)(=O)N2C` had an EC100 of 0.3 µg/mL.

Regarding `NC(=O)CN1c2nc(-c3ccccc3)c(-c3ccccc3)nc2C(N)=NS1(=O)=O`, the EC100 worked out at 3 µg/mL.

`CN1c2nc(-c3ccc(Br)cc3)c(-c3ccc(Br)cc3)nc2C(N)=NS1(=O)=O` had an EC100 of 1 µg/mL.

The compound `CN1c2nc(-c3ccccn3)c(-c3ccccn3)nc2C(N)=NS1(=O)=O` displayed an EC100 of 3 µg/mL.

Compound `NC1=NS(=O)(=O)N(Cc2ccccc2)c2nc(-c3ccccc3)c(-c3ccccc3)nc21` returned an EC100 of 3 µg/mL.

`CCN1c2nc(-c3ccccc3)c(Cl)nc2C(N)=NS1(=O)=O` gave an EC100 of 10 µg/mL.

`CCN1c2nc(-c3ccccc3)cnc2C(N)=NS1(=O)=O`: the EC100 is > 10 µg/mL.

Turning to `CCN1c2nc(-c3ccccc3)c(-c3ccccc3)nc2C(N)=NS1(=O)=O`, the EC100 came to 0.3 µg/mL.

On to `CN1c2nc(-c3ccc(F)cc3)c(-c3ccc(F)cc3)nc2C(N)=NS1(=O)=O`, for which the EC100 came out at 0.3 µg/mL.
